The source of these data is patent US20260232670A1, “TYRO3 SELECTIVE INHIBITORS AND USES THEREOF” (THE UNIVERSITY OF NORTH CAROLINA AT CHAPEL HILL, priority 2023, published 2026).

Experiment [1] addresses T1, TYRO3 (Homo sapiens, UniProt Q06418).
T1 sequence (Q06418 41-890): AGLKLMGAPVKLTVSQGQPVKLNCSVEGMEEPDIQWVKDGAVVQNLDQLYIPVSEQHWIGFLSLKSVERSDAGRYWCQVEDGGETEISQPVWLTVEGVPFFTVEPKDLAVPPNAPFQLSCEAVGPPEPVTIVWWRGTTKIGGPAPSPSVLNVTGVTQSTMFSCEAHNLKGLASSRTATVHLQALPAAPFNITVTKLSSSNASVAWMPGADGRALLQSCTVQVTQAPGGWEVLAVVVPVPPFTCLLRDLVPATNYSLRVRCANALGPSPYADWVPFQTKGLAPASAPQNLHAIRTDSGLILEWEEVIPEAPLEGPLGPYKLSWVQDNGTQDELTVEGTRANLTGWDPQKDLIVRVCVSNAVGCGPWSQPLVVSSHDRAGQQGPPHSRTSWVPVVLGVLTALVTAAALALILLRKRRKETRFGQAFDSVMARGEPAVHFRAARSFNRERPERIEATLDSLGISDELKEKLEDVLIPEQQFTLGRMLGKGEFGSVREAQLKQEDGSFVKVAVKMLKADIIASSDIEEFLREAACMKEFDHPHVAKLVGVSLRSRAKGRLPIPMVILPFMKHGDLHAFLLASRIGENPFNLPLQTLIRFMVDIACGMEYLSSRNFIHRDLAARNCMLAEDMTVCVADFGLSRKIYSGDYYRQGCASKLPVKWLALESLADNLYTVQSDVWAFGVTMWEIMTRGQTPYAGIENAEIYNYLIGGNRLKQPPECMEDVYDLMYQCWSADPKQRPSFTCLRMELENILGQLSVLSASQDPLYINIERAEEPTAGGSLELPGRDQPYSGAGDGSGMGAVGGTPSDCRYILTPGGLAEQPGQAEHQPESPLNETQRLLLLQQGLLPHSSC
As to the kind of experiment: Microfluidic capillary electrophoresis (MCE) kinase activity assay, Tyro3. It is filed as biochemical.
Experimental: (§1) All reactions were terminated by addition of 20 μL of 70 mM EDTA. After a 180 min incubation, phosphorylated and unphosphorylated substrate peptides (Table 6) were separated in buffer supplemented with 1× CR-8 on a LabChip EZ Reader equipped with a 12-sipper chip. Data were analyzed using EZ Reader software.

Experiment [2] deals with T2, MERTK (Homo sapiens, UniProt Q12866).
T2 sequence (Q12866 21-999): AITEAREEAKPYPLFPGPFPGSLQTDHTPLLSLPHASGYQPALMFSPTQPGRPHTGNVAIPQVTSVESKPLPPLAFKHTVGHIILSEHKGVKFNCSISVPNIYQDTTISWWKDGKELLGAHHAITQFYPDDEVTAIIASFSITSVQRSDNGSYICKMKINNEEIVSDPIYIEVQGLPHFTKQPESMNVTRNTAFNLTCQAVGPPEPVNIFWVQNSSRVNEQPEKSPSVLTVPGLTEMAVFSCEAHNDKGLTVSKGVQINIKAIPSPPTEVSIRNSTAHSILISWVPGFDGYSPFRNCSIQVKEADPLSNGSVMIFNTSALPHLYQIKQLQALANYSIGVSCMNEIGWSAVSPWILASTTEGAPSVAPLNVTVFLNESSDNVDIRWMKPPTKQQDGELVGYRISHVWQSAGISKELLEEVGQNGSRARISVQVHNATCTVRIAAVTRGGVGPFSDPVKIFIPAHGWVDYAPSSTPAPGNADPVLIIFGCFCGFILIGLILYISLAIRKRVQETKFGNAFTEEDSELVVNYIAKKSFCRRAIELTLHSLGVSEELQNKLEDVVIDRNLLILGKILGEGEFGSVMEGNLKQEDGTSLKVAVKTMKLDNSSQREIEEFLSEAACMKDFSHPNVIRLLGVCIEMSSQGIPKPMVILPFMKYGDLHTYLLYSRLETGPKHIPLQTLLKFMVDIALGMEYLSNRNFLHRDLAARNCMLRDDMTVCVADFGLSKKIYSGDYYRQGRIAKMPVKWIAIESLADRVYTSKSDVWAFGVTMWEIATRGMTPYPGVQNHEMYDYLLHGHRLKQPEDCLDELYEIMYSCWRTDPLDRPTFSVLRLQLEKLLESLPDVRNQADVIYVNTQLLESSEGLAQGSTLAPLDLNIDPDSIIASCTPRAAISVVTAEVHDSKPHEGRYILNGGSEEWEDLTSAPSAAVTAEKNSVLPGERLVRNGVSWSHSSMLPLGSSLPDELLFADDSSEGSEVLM
As to the kind of experiment: Microfluidic capillary electrophoresis (MCE) kinase activity assay, Mer. It is filed as biochemical.
Experimental: as §1

A value given as a limit tells only on which side of the number the result lay.

Regarding `CC1CCN(Cc2ccc(-c3cn([C@H]4CC[C@H](O)CC4)c4nc(Nc5cc(F)cc(Cl)c5)ncc34)cc2)CC1` [Compound 151], the IC50 in experiment [1] (Table 2, MCE assay, ATP at Km) was under 10 nM; in experiment [2] (Table 2, MCE assay, ATP at Km), under 10 nM.

With `CN1CCN(Cc2ccc(-c3cn(C4CCOCC4)c4nc(Nc5cc(F)cc(Cl)c5)ncc34)cc2)CC1` [Compound 160], the IC50 in experiment [1] (Table 10) and in experiment [2] (Table 10) was under 10 nM throughout.

In the case of `CN1CCN(Cc2ccc(-c3cn([C@H]4CC[C@H](NC(=O)OC(C)(C)C)CC4)c4nc(Nc5cc(C(F)(F)F)cc(C(F)(F)F)c5)ncc34)cc2)CC1` [Compound 161], in experiment [1] (Table 10), the IC50 lay within 10 to 100 nM.

As for `CN1CCN(Cc2ccc(-c3cn([C@H]4CC[C@H](NC(=O)OC(C)(C)C)CC4)c4nc(Nc5cc(F)cc(Cl)c5)ncc34)cc2)CC1` [Compound 163], the figures for the IC50 in experiment [1] (Table 10) and in experiment [2] (Table 10) were 10 to 100 nM and 100 to 1000 nM, respectively.

Turning to `CN1CCN(Cc2ccc(-c3cn([C@H]4CC[C@H](N)CC4)c4nc(Nc5cc(F)cc(Cl)c5)ncc34)cc2)CC1` [Compound 164], the IC50 in experiment [1] (Table 10) and in experiment [2] (Table 10) was under 10 nM in each case.

For `CN1CCN(Cc2ccc(-c3cn(C4CC(CO)(CO)C4)c4nc(Nc5cc(C(F)(F)F)cc(C(F)(F)F)c5)ncc34)cc2)CC1` [Compound 165], the IC50 in experiment [1] (Table 10) is under 10 nM; in experiment [2] (Table 10) it was 1000 to 30000 nM.

For the compound `CN1CCN(Cc2ccc(-c3cc(C4CCC5(CC4)OCCO5)n4nc(Nc5cc(F)cc(Cl)c5)ncc34)cc2)CC1` [Compound 170, N-(3-chloro-5-fluorophenyl)-5-(4-((4-methylpiperazin-1-yl)methyl)phenyl)-7-(1,4-dioxaspiro[4.5]decan-8-yl)pyrrolo[2,1-f][1,2,4]triazin-2-amine], the IC50 in experiment [1] (Table 11) is under 10 nM; in experiment [2] (Table 11) it was 10 to 100 nM.

`CN1CCN(Cc2ccc(-c3cc(C4CCC(=O)CC4)n4nc(Nc5cc(F)cc(Cl)c5)ncc34)cc2)CC1` [Compound 171, 4-(2-((3-chloro-5-fluorophenyl)amino)-5-(4-((4-methylpiperazin-1-yl)methyl)phenyl)pyrrolo[2,1-f][1,2,4]triazin-7-yl)cyclohexan-1-one]: the IC50 was under 10 nM in experiment [1] (Table 11) and 10 to 100 nM in experiment [2] (Table 11).

With `CN1CCN(Cc2ccc(-c3cn([C@H]4CC[C@H](O)CC4)c4nc(Nc5cc(F)cc(Cl)c5)ncc34)cn2)CC1` [Compound 172], the half-inhibitory concentration (IC50) in experiment [1] (Table 12) and in experiment [2] (Table 12) was under 10 nM in each case.

As to `CN1CCN(Cc2ccc(-c3cn([C@H]4CC[C@H](O)CC4)c4nc(Nc5cc(C(F)(F)F)cc(C(F)(F)F)c5)ncc34)cn2)CC1` [Compound 173], the values for the IC50 in experiment [1] (Table 12) and in experiment [2] (Table 12) were under 10 nM and 100 to 1000 nM, respectively.

Regarding `CN1CCN(Cc2ccc(-c3cn([C@H]4CC[C@H](O)CC4)c4nc(Nc5ccsc5)ncc34)cc2)CC1` [Compound 174], the IC50 was under 10 nM in experiment [1] (Table 2, MCE assay, ATP at Km) and under 10 nM in experiment [2] (Table 2, MCE assay, ATP at Km).

`CN1CCN(Cc2ccc(-c3cn([C@H]4CC[C@H](O)CC4)c4nc(Nc5cncc(Cl)c5)ncc34)cc2)CC1` [Compound 175]: the IC50 in experiment [1] (Table 2, MCE assay, ATP at Km) was under 10 nM; in experiment [2] (Table 2, MCE assay, ATP at Km), under 10 nM.

Broadly, the IC50 is the point on the concentration scale where inhibition reaches its midpoint. Lower therefore signals inhibition by little substance.
